From patent US20260356819A1, “OXOISOINDOLINYL-SUBSTITUTED […] DERIVATIVE AND USE THEREOF” (GLUETACS THERAPEUTICS (SHANGHAI) CO., LTD., priority 2023, published 2026)

Assays:
Assay type in all cases: cell-based
Conditions in all cases: compounds at 50 nM and 500 nM
[1] = molecular target: T1, WEE1 (Homo sapiens, UniProt P30291+Q96SW2); test: Western blot degradation of WEE1 in hPBMCs (24 h)
T1 construct: The supernatant was aspirated as the extracted total cell protein; endogenous in cells; host or cells: human peripheral blood mononuclear cells (hPBMCs)
Method: Conventional Western blot assay was performed to evaluate the effects of the compounds of the present disclosure on the expression of target proteins in cells. • (1) Cell Seeding and Protein Harvesting: Human peripheral blood mononuclear cells (hPBMCs) at a density of 1×10^6 cells/mL were thawed according to the PBMC Recovery Protocol (Milecell Biotechnologies Inc, Shanghai). The cells were then treated with the compounds of the present disclosure (including the compounds listed in Table 1, and the Examples 1-498 compounds) at concentrations of 50 nM and 500 nM. Controls included a negative control (DMSO) and a positive control (the commercial immunomodulatory drug lenalidomide), both processed following the identical experimental protocol as the compounds of the present disclosure. After 24 hours of compounds treatment, cells were harvested and lysed in RIPA protein lysate containing protease inhibitors on ice for 30 min, followed by centrifugation. The supernatant was aspirated as the extracted total cell protein. The protein concentration of the supernatant was determined using the conventional BCA (Bicinchoninic Acid) assay. • (2) To the collected supernatant, 5×SDS sample loading buffer was added, followed by denaturation at 95 °C for 5 minutes. The denatured samples were then separated by SDS-PAGE electrophoresis on a polyacrylamide gel. Proteins were transferred to a nitrocellulose membrane (0.45 μm NC membrane), blocked with blocking buffer at room temperature for 1 hour, and subjected to antibody incubation and development procedures according to the antibody manufacturer's instructions (Cell Signaling Technology).
Half-Maximal Degradation Concentration value (the drug concentration required for degrading proteins by 50%, abbreviated as DC50) reads method: comparing the grayscale values of Western blot bands from drug-treated samples with those from blank DMSO-treated controls, and identifying the drug concentration range at which the grayscale value is half that of the DMSO-treated control bands.
DC50 values can be calculated using ImageJ software to measure grayscale values of Western blot bands from drug-treated samples. The concentration-response curve is fitted to estimate the drug concentration corresponding to half the grayscale value.
Target protein remaining (%) refers to the percentage of target protein remaining in cells after treatment with protein degrader compounds.
Calculation method for target protein remaining (%): Use ImageJ software to measure grayscale values of Western blot bands from drug (protein degrader)-treated samples. The grayscale value of drug-treated bands is divided by that of internal control protein bands, and the resulting quotient is normalized to obtain the relative percentage of remaining target protein after protein degrader treatment.
Target protein degradation rate (%)=1−target protein remaining (%).

[2] = molecular target: T2, IKZF2 (Homo sapiens, UniProt Q96SW2+Q9UKS7); test: Western blot degradation of IKZF2 in hPBMCs (24 h)
T2 construct: The supernatant was aspirated as the extracted total cell protein; endogenous in cells; host or cells: human peripheral blood mononuclear cells (hPBMCs)
Procedure, shortened: (§1)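 In this assay, each compound was incubated with human PBMCs for 24 h at 50 nM and 500 nM. Target levels were measured by Western blot densitometry normalised to an internal control.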

[3] = molecular target: T3, GSPT1 (Homo sapiens, UniProt P15170+Q96SW2); test: Western blot degradation of GSPT1 in hPBMCs (24 h)
T3 construct: The supernatant was aspirated as the extracted total cell protein; endogenous in cells; host or cells: human peripheral blood mononuclear cells (hPBMCs)
Procedure, shortened: as §1

[4] = molecular target: T4, IKZF1 (Homo sapiens, UniProt Q13422+Q96SW2); test: Western blot degradation of IKZF1 in hPBMCs (24 h)
T4 construct: The supernatant was aspirated as the extracted total cell protein; endogenous in cells; host or cells: human peripheral blood mononuclear cells (hPBMCs)
Procedure, shortened: as §1

[5] = molecular target: T5, CK1α (Homo sapiens, UniProt P48729+Q96SW2); test: Western blot degradation of CK1α in hPBMCs (24 h)
T5 construct: The supernatant was aspirated as the extracted total cell protein; endogenous in cells; host or cells: human peripheral blood mononuclear cells (hPBMCs)
Procedure, shortened: as §1

[6] = molecular target: T6, IKZF3 (Homo sapiens, UniProt Q96SW2+Q9UKT9); test: Western blot degradation of IKZF3 in hPBMCs (24 h)
T6 construct: The supernatant was aspirated as the extracted total cell protein; endogenous in cells; host or cells: human peripheral blood mononuclear cells (hPBMCs)
Procedure, shortened: as §1

T5 sequence (P48729 whole entry): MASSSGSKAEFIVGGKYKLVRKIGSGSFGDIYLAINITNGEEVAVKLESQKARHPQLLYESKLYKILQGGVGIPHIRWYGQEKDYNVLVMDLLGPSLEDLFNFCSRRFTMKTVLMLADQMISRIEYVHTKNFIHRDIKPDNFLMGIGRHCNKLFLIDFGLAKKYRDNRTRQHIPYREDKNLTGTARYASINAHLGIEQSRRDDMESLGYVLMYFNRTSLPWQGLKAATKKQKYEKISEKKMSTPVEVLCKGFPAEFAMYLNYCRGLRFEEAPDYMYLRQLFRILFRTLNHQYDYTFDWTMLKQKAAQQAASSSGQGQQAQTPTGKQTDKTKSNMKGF
T5 sequence (Q96SW2 whole entry): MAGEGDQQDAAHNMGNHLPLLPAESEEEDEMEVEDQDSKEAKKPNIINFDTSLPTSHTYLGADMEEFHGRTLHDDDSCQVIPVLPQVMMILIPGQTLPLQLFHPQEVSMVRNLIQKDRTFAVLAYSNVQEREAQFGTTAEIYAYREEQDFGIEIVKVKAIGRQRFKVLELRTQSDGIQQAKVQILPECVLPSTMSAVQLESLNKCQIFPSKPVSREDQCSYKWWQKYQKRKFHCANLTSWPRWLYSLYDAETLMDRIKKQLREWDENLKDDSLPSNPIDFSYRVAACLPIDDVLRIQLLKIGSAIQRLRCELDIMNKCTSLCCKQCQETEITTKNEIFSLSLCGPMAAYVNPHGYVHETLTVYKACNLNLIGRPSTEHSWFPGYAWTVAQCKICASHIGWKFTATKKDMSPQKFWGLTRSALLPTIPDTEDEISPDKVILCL
T5 sequence (Q16531 whole entry partner): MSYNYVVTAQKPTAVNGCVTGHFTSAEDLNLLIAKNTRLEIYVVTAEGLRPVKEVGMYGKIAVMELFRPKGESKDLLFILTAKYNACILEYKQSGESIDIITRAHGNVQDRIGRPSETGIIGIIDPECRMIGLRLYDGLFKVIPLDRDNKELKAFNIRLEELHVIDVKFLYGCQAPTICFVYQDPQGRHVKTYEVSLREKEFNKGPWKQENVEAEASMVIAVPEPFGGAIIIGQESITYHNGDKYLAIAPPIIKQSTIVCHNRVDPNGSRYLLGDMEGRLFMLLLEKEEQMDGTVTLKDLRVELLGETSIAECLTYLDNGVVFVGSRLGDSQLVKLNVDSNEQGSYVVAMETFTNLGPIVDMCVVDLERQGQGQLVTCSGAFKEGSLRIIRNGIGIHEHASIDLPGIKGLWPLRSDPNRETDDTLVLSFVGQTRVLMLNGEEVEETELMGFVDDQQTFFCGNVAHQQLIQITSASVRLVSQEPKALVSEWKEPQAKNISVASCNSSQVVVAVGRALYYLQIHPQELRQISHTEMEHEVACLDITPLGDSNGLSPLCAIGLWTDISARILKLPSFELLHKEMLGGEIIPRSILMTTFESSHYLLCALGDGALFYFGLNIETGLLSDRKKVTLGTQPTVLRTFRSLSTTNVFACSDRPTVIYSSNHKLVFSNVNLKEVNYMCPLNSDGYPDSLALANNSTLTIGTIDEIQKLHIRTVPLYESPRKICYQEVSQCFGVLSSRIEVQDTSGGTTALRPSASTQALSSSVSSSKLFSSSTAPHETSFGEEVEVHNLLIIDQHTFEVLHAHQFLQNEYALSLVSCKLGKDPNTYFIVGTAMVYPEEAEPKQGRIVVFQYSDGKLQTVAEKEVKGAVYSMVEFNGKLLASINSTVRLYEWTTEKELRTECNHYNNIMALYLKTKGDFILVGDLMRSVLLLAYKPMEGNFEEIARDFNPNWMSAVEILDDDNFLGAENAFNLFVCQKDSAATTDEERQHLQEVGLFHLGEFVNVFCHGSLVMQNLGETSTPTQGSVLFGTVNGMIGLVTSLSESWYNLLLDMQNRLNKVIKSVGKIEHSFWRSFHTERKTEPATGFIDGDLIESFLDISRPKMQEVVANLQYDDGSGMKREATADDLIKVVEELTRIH
T2 sequence (Q9UKS7 whole entry): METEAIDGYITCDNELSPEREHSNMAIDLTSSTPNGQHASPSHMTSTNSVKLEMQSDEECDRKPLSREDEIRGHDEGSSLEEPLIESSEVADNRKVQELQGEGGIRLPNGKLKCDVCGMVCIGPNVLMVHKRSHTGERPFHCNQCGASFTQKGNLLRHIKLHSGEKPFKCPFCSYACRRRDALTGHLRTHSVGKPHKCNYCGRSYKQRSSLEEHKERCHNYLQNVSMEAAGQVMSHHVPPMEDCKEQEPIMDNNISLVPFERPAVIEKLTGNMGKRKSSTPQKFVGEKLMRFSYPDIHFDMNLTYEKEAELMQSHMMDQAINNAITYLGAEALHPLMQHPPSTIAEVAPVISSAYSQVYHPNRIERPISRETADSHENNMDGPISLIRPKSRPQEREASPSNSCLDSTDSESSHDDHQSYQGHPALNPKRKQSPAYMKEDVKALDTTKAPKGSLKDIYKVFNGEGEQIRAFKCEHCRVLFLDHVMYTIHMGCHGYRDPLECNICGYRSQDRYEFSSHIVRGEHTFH
T2 sequence (Q96SW2 whole entry): as the sequence (Q96SW2 whole entry) above
T2 sequence (Q16531 whole entry partner): as the sequence (Q16531 whole entry partner) above
T3 sequence (P15170 whole entry): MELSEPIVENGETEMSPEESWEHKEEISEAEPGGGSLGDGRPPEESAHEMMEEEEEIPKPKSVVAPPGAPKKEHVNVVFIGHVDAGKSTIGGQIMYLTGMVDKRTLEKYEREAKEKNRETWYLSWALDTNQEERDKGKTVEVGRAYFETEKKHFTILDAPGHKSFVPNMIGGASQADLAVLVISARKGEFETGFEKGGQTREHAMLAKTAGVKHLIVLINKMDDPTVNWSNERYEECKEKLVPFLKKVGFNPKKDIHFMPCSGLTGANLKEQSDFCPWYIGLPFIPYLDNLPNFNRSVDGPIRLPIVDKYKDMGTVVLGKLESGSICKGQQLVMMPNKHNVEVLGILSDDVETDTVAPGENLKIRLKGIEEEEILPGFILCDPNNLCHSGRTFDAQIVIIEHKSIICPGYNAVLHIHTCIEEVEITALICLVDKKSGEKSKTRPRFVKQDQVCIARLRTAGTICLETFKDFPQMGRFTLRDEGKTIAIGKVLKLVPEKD
T3 sequence (Q96SW2 whole entry): as the sequence (Q96SW2 whole entry) above
T3 sequence (Q16531 whole entry partner): as the sequence (Q16531 whole entry partner) above
T6 sequence (Q9UKT9 whole entry): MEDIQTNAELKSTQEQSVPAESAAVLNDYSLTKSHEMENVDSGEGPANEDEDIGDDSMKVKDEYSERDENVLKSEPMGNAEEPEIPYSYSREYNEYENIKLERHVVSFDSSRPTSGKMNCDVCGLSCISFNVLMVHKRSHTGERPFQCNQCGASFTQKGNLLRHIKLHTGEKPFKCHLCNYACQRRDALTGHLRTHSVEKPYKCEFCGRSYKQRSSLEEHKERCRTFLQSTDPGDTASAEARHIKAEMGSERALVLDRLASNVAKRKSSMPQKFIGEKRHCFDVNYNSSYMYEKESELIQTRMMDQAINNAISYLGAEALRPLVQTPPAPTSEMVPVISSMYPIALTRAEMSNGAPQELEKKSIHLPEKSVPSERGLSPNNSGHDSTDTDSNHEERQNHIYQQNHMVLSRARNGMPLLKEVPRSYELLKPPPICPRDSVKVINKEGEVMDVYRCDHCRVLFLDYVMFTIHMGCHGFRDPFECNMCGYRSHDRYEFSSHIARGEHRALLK
T6 sequence (Q96SW2 whole entry): as the sequence (Q96SW2 whole entry) above
T6 sequence (Q16531 whole entry partner): as the sequence (Q16531 whole entry partner) above
T4 sequence (Q13422 whole entry): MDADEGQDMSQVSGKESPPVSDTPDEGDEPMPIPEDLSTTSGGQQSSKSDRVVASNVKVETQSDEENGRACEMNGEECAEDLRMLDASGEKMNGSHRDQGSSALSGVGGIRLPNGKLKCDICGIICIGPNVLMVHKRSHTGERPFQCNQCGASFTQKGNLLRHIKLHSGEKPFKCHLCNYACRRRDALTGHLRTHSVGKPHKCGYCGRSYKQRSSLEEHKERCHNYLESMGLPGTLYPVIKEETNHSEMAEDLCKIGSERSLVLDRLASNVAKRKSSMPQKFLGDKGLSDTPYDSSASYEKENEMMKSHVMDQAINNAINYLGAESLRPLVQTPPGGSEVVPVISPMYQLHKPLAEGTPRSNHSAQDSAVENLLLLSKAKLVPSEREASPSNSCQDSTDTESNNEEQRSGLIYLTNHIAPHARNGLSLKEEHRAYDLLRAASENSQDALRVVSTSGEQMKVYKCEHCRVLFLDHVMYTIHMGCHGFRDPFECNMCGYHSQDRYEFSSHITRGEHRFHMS
T4 sequence (Q96SW2 whole entry): as the sequence (Q96SW2 whole entry) above
T4 sequence (Q16531 whole entry partner): as the sequence (Q16531 whole entry partner) above

SMILES | WEE1 substrate protein remaining % [1] | IKZF2 substrate protein remaining % [2] | GSPT1 substrate protein remaining % [3] | IKZF1 substrate protein remaining % [4] | CK1α substrate protein remaining % [5] | IKZF3 substrate protein remaining % [6]
O=C1CCN(N2Cc3cc(CN4CCN(c5ccc(F)cn5)CC4)ccc3C2=O)C(=O)N1 [GT-05131, 1-(5-((4-(5-fluoropyridin-2-yl)piperazin-1-yl)methyl)-1-oxoisoindolin-2-yl)dihydropyrimidine-2,4(1H,3H)-dione] | A (0% ≤ substrate protein remaining % ≤80%) | A (0% ≤ substrate protein remaining % ≤80%) | A (0% ≤ substrate protein remaining % ≤80%) | A (0% ≤ substrate protein remaining % ≤80%) | A (0% ≤ substrate protein remaining % ≤80%) | A (0% ≤ substrate protein remaining % ≤80%)
O=C1CCN(N2Cc3cc(CN4C5CC4CN(c4cccc(Cl)c4Cl)C5)ccc3C2=O)C(=O)N1 [GT-05162, 1-(5-((3-(2,3-dichlorophenyl)-3,6-diazabicyclo[3.1.1]heptan-6-yl)methyl)-1-oxoisoindolin-2-yl)dihydropyrimidine-2,4(1H,3H)-dione] | B (80%< substrate protein remaining % ≤100%) | B (80%< substrate protein remaining % ≤100%) | A (0% ≤ substrate protein remaining % ≤80%) | B (80%< substrate protein remaining % ≤100%) | B (80%< substrate protein remaining % ≤100%) | A (0% ≤ substrate protein remaining % ≤80%)
O=C1CCN(N2C(=O)c3ccc(CN4CCC(N(c5ccccc5)c5ccccc5)CC4)cc3C2=O)C(=O)N1 [GT-05177, 2-(2,4-dioxotetrahydropyrimidin-1(2H)-yl)-5-((4-(diphenylamino)piperidin-1-yl)methyl)isoindoline-1,3-dione] | B (80%< substrate protein remaining % ≤100%) | B (80%< substrate protein remaining % ≤100%) | A (0% ≤ substrate protein remaining % ≤80%) | B (80%< substrate protein remaining % ≤100%) | B (80%< substrate protein remaining % ≤100%) | B (80%< substrate protein remaining % ≤100%)
O=C1CCN(N2C(=O)c3ccc(CN4CCC(Nc5ccccc5-c5ccc(Cl)cc5)CC4)cc3C2=O)C(=O)N1 [GT-05179, 5-((4-((4′-chloro-[1,1′-biphenyl]-2-yl)amino)piperidin-1-yl)methyl)-2-(2,4-dioxotetrahydropyrimidin-1(2H)-yl)isoindoline-1,3-dione] | A (0% ≤ substrate protein remaining % ≤80%) | B (80%< substrate protein remaining % ≤100%) | B (80%< substrate protein remaining % ≤100%) | B (80%< substrate protein remaining % ≤100%) | B (80%< substrate protein remaining % ≤100%) | B (80%< substrate protein remaining % ≤100%)
CC1(C)CCC(CN2CCN(Cc3ccc4c(c3)C(=O)N(N3CCC(=O)NC3=O)C4=O)CC2)=C(c2ccc(Cl)cc2)C1 [GT-05180, 5-((4-((4′-chloro-5,5-dimethyl-3,4,5,6-tetrahydro-[1,1′-biphenyl]-2-yl)methyl)piperazin-1-yl)methyl)-2-(2,4-dioxotetrahydropyrimidin-1(2H)-yl)isoindoline-1,3-dione] | A (0% ≤ substrate protein remaining % ≤80%) | B (80%< substrate protein remaining % ≤100%) | B (80%< substrate protein remaining % ≤100%) | B (80%< substrate protein remaining % ≤100%) | B (80%< substrate protein remaining % ≤100%) | B (80%< substrate protein remaining % ≤100%)
O=C1CCN(N2C(=O)c3ccc(CN4CC=C(c5c[nH]c6ncccc56)CC4)cc3C2=O)C(=O)N1 [GT-05181, 5-((4-(1H-pyrrolo[2,3-b]pyridin-3-yl)-3,6-dihydropyridin-1(2H)-yl)methyl)-2-(2,4-dioxotetrahydropyrimidin-1(2H)-yl)isoindoline-1,3-dione] | A (0% ≤ substrate protein remaining % ≤80%) | B (80%< substrate protein remaining % ≤100%) | B (80%< substrate protein remaining % ≤100%) | B (80%< substrate protein remaining % ≤100%) | B (80%< substrate protein remaining % ≤100%) | B (80%< substrate protein remaining % ≤100%)
O=C1CCN(N2C(=O)c3ccc(CN4CC=C(c5cccc(Cl)c5Cl)CC4)cc3C2=O)C(=O)N1 [GT-05249, 5-((4-(2,3-dichlorophenyl)-3,6-dihydropyridin-1(2H)-yl)methyl)-2-(2,4-dioxotetrahydropyrimidin-1(2H)-yl)isoindoline-1,3-dione] | B (80%< substrate protein remaining % ≤100%) | B (80%< substrate protein remaining % ≤100%) | A (0% ≤ substrate protein remaining % ≤80%) | A (0% ≤ substrate protein remaining % ≤80%) | B (80%< substrate protein remaining % ≤100%) | B (80%< substrate protein remaining % ≤100%)
O=C1CCN(N2C(=O)c3ccc(CN4CCC(c5cccc(Cl)c5Cl)CC4)cc3C2=O)C(=O)N1 [GT-05250, 5-((4-(2,3-dichlorophenyl)piperidin-1-yl)methyl)-2-(2,4-dioxotetrahydropyrimidin-1(2H)-yl)isoindoline-1,3-dione] | B (80%< substrate protein remaining % ≤100%) | A (0% ≤ substrate protein remaining % ≤80%) | B (80%< substrate protein remaining % ≤100%) | B (80%< substrate protein remaining % ≤100%) | B (80%< substrate protein remaining % ≤100%) | B (80%< substrate protein remaining % ≤100%)
O=C1CCN(N2C(=O)c3ccc(CN4C5CC4CN(c4cccc(Cl)c4Cl)C5)cc3C2=O)C(=O)N1 [GT-05251, 5-((3-(2,3-dichlorophenyl)-3,6-diazabicyclo[3.1.1]heptan-6-yl)methyl)-2-(2,4-dioxotetrahydropyrimidin-1(2H)-yl)isoindoline-1,3-dione] | B (80%< substrate protein remaining % ≤100%) | A (0% ≤ substrate protein remaining % ≤80%) | B (80%< substrate protein remaining % ≤100%) | B (80%< substrate protein remaining % ≤100%) | B (80%< substrate protein remaining % ≤100%) | B (80%< substrate protein remaining % ≤100%)
